Experimental findings from patent US7829560B2, “1,4-disubstituted naphthalenes as inhibitors of P38 MAP kinase” (Arqule, Inc., priority 2004, dated 2010) are described below.

Assay [1] concerns the target T1, p38α (Homo sapiens, UniProt Q16539).
T1 construct: p38 MAP Kinases are recombinant human full-length proteins with an amino-terminal GST fusion; GST (N); purchased Upstate Biotechnology Inc; host or cells: E. coli
In words: p38 MAP Kinase assay: inhibition of ATF2 phosphorylation, ELISA. Format: biochemical. Particulars: for IC50: ATF2 phosphorylation, read-out: [ENZ] P38 ALPHA, IC50, ELISA; for inhibition at 10 µM: substrate ATF2, read-out: [ENZ] P38 ALPHA, PCT INH, ELISA (10 uM;ATF2) (Percent). The text has this:
Compounds of the invention are screened for the ability to inhibit ATF2 phosphorylation by p38 MAP Kinase in vitro. The ability of compounds to inhibit ATF2 phosphorylation in this in vitro assay is correlated with the inhibition of p38 MAP Kinase and TNFα expression in vivo, and is therefore an indicator of potential in vivo therapeutic activity (Raingeaud, J., et al, J. Biol. Chem., 270: 7420-7426, 1995, Brinkman, M. N., et al, J. Biol. Chem. 274: 30882-30886, 1999 and Fuchs, S. Y. et al, J. Biol. Chem. 275: 12560-12564, 2000).
Materials: All kinases and the substrate ATF2 are acquired from Upstate Biotechnology Inc. p38 MAP Kinases are recombinant human full-length proteins with an amino-terminal GST fusion, expressed in and purified from E. coli. ATF2 is a GST fusion protein containing amino acids 19-96 of human ATF2 expressed in E. coli. All proteins are aliquoted and stored at −80° C.
Methods: p38 MAP Kinase assays are performed using an assay buffer containing 25 mM HEPES, pH 7.5, 10 mM MgCl2, 2 mM DTT, 20 mM β-glycerophosphate, 0.1 mM Na3VO4, 40 μM ATP and 1.25 μM of ATF2 and in the absence or presence of 1% human serum albumin, Method I and II, respectively, with 0.4-6 ng of protein depending on the kinase used. Compounds are serially diluted in DMSO and 2 μL of test compound at 25× final concentration is used. The vehicle control receives DMSO only. Test compounds are pre-incubated with 20 μl of enzyme in kinase buffer (25 mM HEPES, pH 7.5, 10 mM MgCl2, 2 mM DTT, 20 mM β-glycerophosphate, 0.1 mM Na3VO4 in the absence or presence of 1% human serum albumin, Method I and II, respectively) at room temperature for 15 minutes. […] The reactions are incubated for 30 minutes at 37° C. and terminated by the addition of 18 μl of 200 mM EDTA. An ELISA method (I or II) is used to measure the phosphorylation of ATF2 at Thr 69. Method I: 96-well high binding plates (Corning 3369) are coated with 50 μl of kinase reaction for 1 hour at 37° C. The coated plates are washed with 200 μl washing buffer (25 mM Tris HCl, pH 8.3, 192 mM glycine, 0.1% SDS and 0.05% Tween-20) three times. The plates are then washed three times with SuperBlock in TBS (Pierce, 37535). After blocking, plates are incubated with 50 μl of rabbit anti-phospho-ATF2 antibody (Cell Signaling, 9221L, 1:500) for 30 minutes at 37° C. Plates are washed three times with washing buffer prior to incubation with 50 μl HRP-conjugated goat anti-rabbit antibody (Cell Signaling, 7074, 1:500) for 30 minutes at 37° C. Plates are then washed three times with washing buffer before incubation with 50 μl of Ultra TMB-ELISA (Pierce, 34028) for 8 minutes at room temperature. Finally, 50 ul of phosphoric acid (1 M) is added to stop reactions and plate absorbance is read at 450 nm on a SpectraMax 250 plate reader. Method II: 96-well high binding plates (Corning 3369) are coated with 400 ng of monoclonal antibody against GST-tag (Cell signaling) in 100 μl containing sodium borate (pH 8.3) for 90 minutes at 37° C. The plates are washed with 200 μl washing buffer (25 mM Tris HCl, pH 7.2, 150 mM NaCl and Tween-20) three times and blocked with 200 μl of 5% nonfat milk for 30 minutes at room temperature. The plates are washed three times with washing buffer, 50 μl of stopped kinase reaction are added to each well and incubated for 80 minutes at 37° C. The plates are washed three times with 200 μl washing buffer, and the plates are incubated with 50 μl of rabbit anti-phospho-ATF2 antibody (Cell Signaling, 9221L, 1:500) for 30 minutes at 37° C. Plates are washed three times with washing buffer prior to incubation with 50 μl HRP-conjugated goat anti-rabbit antibody (Cell Signaling, 7074, 1:500) for 30 minutes at 37° C. Plates are washed three times with washing buffer before incubation with 50 μl of Ultra TMB-ELISA (Pierce, 34028) for 25 minutes at room temperature. Finally, 50 μl of phosphoric acid (1 M) is added to stop reactions and plate absorbance is read at 450 nm on a SpectraMax 250 plate reader. […]
Background: In an ELISA, binding on a coated surface is turned into a signal by an enzyme label.

For assay [2], the system named is TNFα release from THP-1 cells. Put plainly: Inhibition of TNFα release from LPS-stimulated THP-1 cells, ELISA. The format is cell-based. The following applies: Homo sapiens, THP-1, THP-1 cells, read-out: [CELL] THP-1, IC50, TNF ALPHA, ELISA. The text has this: Compounds of the invention are screened for the ability to inhibit TNFα and IL-1β release from THP-1 cells stimulated with lipopolysaccharide (LPS) in vitro. The ability of compounds to inhibit TNFα and IL-1β release in this in vitro assay is correlated with the inhibition of p38 activity and TNFα and IL-1β expression in vivo, and is therefore an indicator of potential in vivo therapeutic activity (Lee J. C. et al, Ann. N.Y. Acad. Sci. 696: 149-170, 1993 and Nature, 372: 739-746, 1994).
Materials: THP-1 cells from ATCC (TIB202) are maintained at 37° C., 5% CO2 in RPMI 1640 media (available from MediaTech, Herndon, Va.) containing 4.5 g/L glucose, supplemented with 10% fetal bovine serum, 1% penicillin/streptomycin and 50 μM β-mercaptoethanol.
Methods: Test compounds are initially dissolved in RPMI media with 1% DMSO (v/v). Compounds are then serially diluted in RPMI media for all subsequent dilutions. The assay is performed under sterile conditions. THP-1 cells at a culture density of 6-8×10^5 cells/ml are collected and resuspended in the RPMI media at 10^6 cells/ml containing 10% fetal bovine serum, no serum or 1% human serum albumin (HSA). 100 μl of resuspended cells are added to each well, which contain 100 μl of a test compound. Test compounds are prepared at twice the final concentration. Final DMSO concentration is no more than 0.5% (v/v). Cells are preincubated with compound for 30 minutes at 37° C., 5% CO2 prior to stimulation with lipopolysaccharide (LPS) (Sigma L-2880, 4 mg/ml stock in PBS). The final LPS concentration in each well is 10 or 30 μg/ml for TNFα and IL-1β release, respectively. Unstimulated control cell suspensions receive PBS vehicle only. Cell mixtures are incubated for 18 or 48 hours for TNFα and IL-1β prelease, respectively. 150 μl of supernatants are taken and transferred to a fresh plate and stored at −20° C. until further analysis. TNFα and IL-1β levels are measured using ELISA kits from Biosource (Catalog no. KHC3012 for TNFα; KAC1192 for IL-1β). A SpectraMAX 250 is used as the plate reader. Analysis is performed by non-linear regression to generate a dose response curve. The calculated IC50 value is the concentration of the test compound that causes a 50% decrease in TNFα or IL-1β levels.

Where “and” joins values, the source holds several entries; their conditions need not be identical. Equal values may be shown once.

T1 sequence (Q16539 whole entry, the tested form may be a part): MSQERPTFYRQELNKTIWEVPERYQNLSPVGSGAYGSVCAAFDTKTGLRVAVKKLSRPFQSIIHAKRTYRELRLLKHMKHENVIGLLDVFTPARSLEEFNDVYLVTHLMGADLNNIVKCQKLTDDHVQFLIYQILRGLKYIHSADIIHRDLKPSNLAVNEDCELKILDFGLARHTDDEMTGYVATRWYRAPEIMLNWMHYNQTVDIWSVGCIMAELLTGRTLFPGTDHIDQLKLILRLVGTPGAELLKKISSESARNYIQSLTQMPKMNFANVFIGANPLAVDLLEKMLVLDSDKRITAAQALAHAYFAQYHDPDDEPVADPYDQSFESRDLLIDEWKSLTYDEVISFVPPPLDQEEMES

As for `O=C(Nc1ccc(OCCN2CCCCC2)c2ccccc12)c1ccc(CN2CCOCC2)cc1` [Compound B2], the IC50 in assay [1] and in assay [2] was > 10 µM in each case.

Regarding `CCOC(=O)N1CCN(CCOc2ccc(NC(=O)c3ccc(CN4CCOCC4)cc3)c3ccccc23)CC1` [Compound B3], the IC50 in assay [1] and in assay [2] was > 10 µM in each case.

For `O=C(Nc1ccc(OCCN2CCSCC2)c2ccccc12)c1ccc(CN2CCOCC2)cc1` [Compound B4], the IC50 is > 100 µM in assay [1] and > 10 µM in assay [2].

Consider `C[C@@H]1CN(CCOc2ccc(NC(=O)c3ccc(CN4CCOCC4)cc3)c3ccccc23)C[C@H](C)O1` [Compound B5], for which the IC50 in assay [1] and in assay [2] was > 10 µM each time.

Consider `C[C@@H]1CN(CCOc2ccc(NC(=O)c3cccc(N4CCOCC4)c3)c3ccccc23)C[C@H](C)O1` [Compound B19], for which, in assay [1], the inhibition at 10 µM was 65% and the IC50 turned out to be 8.96 µM. In assay [2], the IC50 was > 10 µM.

As to `O=C(Nc1ccc(OCCN2CCSCC2)c2ccccc12)c1cccc(N2CCOCC2)c1` [Compound B20], in assay [1], the inhibition at 10 µM stood at 73.5%. For the same compound, the IC50 in assay [1] is 5.55 µM; in assay [2], > 10 µM.

For `O=C(Nc1ccc(OCCN2CCOCC2)c2ccccc12)c1ccccc1` [Compound B26], the IC50 was 21.8 µM in assay [1] and > 10 µM in assay [2].

Turning to `O=C(Nc1ccc(OCCN2CCOCC2)c2ccccc12)c1cc(Br)cc(I)c1` [Compound B27], the IC50 in assay [1] was > 100 µM; in assay [2], > 10 µM.

Turning to `O=C(Nc1ccc(OCCN2CCOCC2)c2ccccc12)c1cnc(N2CCOCC2)c2ccccc12` [Compound B28], the IC50 was > 100 µM in assay [1] and > 10 µM in assay [2].

For `O=C(Nc1ccc(OCCN2CCOCC2)c2ccccc12)c1ccc(N2CCOCC2)cc1` [Compound B29], the IC50 in assay [1] and in assay [2] was > 10 µM each time.

Regarding `O=C(Nc1ccc(OCCN2CCOCC2)c2ccccc12)c1ccc(N2CCOCC2)nc1` [Compound B30], the IC50 in assay [1] and in assay [2] was > 10 µM in each case.

As for `O=C1CN(CCOc2ccc(NC(=O)c3cc(F)cc(N4CCCCC4)c3)c3ccccc23)CCN1` [Compound B164, 3-Fluoro-N-{4-[2-(3-oxo-piperazin-1-yl)-ethoxy]-naphthalen-1-yl}-5-piperidin-1-yl-benzamide], in assay [1], the inhibition at 10 µM is 83.5%; the IC50 was 0.436 µM and 0.306 µM.

`O=C(Nc1ccc(OCCN2CCOCC2)c2ccccc12)c1cccc(N2CCc3ccccc3C2)c1` [Compound B168]: the inhibition at 10 µM in assay [1] is 36%.

As to `O=C(Nc1ccc(OCCN2CCOCC2)c2ccccc12)c1cccc(NCc2ccc(F)cc2)c1` [Compound B170], the inhibition at 10 µM in assay [1] turned out to be 46%.

In the case of `O=C(Nc1ccc(OCCN2CCOCC2)c2ccccc12)c1cccc(N2CCC(N3CCCC3)CC2)c1` [Compound B171], in assay [1], the inhibition at 10 µM is 16%.

Regarding `Cc1cccc(N2CCN(c3cccc(C(=O)Nc4ccc(OCCN5CCOCC5)c5ccccc45)c3)CC2)c1` [Compound B172], the inhibition at 10 µM in assay [1] amounted to 25%.

With `O=C(Nc1ccc(OCCN2C(=O)c3ccccc3C2=O)c2ccccc12)c1cc(F)cc(N2CCOCC2)c1` [Compound B187], the IC50 in assay [1] was > 10 µM.

Take `CC(C)(C)C1CCC(Oc2cc(F)cc(C(=O)Nc3ccc(OCCN4CCOCC4)c4ccccc34)c2)CC1` (stereo not drawn) [Compound B216]: in assay [1], the concentration for half-maximal inhibition (IC50) was > 10 µM.

For the compound `O=C(Nc1ccc(OCCN2C(=O)CCC2=O)c2ccccc12)c1cc(F)cc(N2CCOCC2)c1` [Compound B221], the IC50 in assay [1] is > 10 µM.

With `O=C(Nc1ccc(OCc2ccco2)c2ccccc12)c1cc(F)cc(N2CCOCC2)c1` [Compound B223], the IC50 in assay [1] came to 12.8 µM.

In the case of `O=C(Nc1ccc(OCCN2CCOCC2)c2ccccc12)c1cccc(-c2cccc(F)c2)c1` [Compound B272], the IC50 in assay [2] stood at 3.4 µM.

Take `CN(C)C(=O)[C@@H]1CCCN1c1nccc(Oc2ccc(NC(=O)c3cc(F)cc(N4CCCCC4)c3)c3ccccc23)n1` [Compound B408]: the IC50 in assay [2] was > 1 µM.

As usually defined, the IC50 is the point on the concentration scale where inhibition reaches its midpoint.
